Assays:
CYP1A2 mRNA = CYP1A2 mRNA expression in Hep G2 cells (real-time PCR); type: cell-based, human
Procedure: (§1) The logarithmic growth phase Hep G2 cells were seeded into 12-well plastic plates at a density of […]. After incubation at 37 °C under 5% CO2 for 24 h, the media were then replaced with 1 mL of serial dilutions of the DPTM (4.98, 0.16 and 0.08 mM) in fresh media. When cells were incubated for 2, 4 and 12 h at 37 °C under 5% CO2, the RNA was isolated using the Trizol reagent according to the manufacturer’s protocol. Total RNA (5 μL) was transcribed into cDNA by using the PrimeScript RT reagent Kit (Perfect Real Time). The obtained cDNA (5 μL) was added for 45 cycles of PCR amplification to detect the mRNA expression (the primers and sequences used herein were given in Table 3) using the ABI Villa TM7Dx real-time PCR system (Gaithersburg, USA). Glyceraldehyde-3-phosphate dehydrogenase (GAPDH) was used as reference gene. All reactions were performed in a final volume of 20 μL (10 μL of 2 × SYBR Green Real-time PCR Master Mix, 2 μL of cDNA and 2 μL of the primers and 6 μL DEPC water) and executed in triplicate.

S. typhimurium TA98 = assay: Ames test, strain TA98; type: cell-based, Salmonella typhimurium; details: − S9
Text: (§2) S. typhimurium strains TA97, TA98, TA100, TA102 and TA1535 were stored and maintained as provided in the standard protocol. Each of the strains was checked for their genetic integrity prior to the experiment, and tested for biotin dependence, histidine dependence, biotin and histidine dependence, rfa marker (crystal violet) and presence of the plasmid pKM101 (ampicillin resistance) or pAQ1 (tetracycline resistance). Different strains were used to identify different types of mutations.
(§3) The test was carried out at five different concentrations of DPTM. […] Then 1 mL solution was diluted with distilled water by two fold. […] The negative control used in this experiment was 1 mL DMSO which was directly incorporated into 9 mL melted top agar.
(§4) The Ames test of DPTM was conducted as described in the literatures[42],[43] with some modifications. Briefly, 1 mL of strain was inoculated into 5 mL of nutrient broth, followed by incubating overnight at 37 °C. The mixture comprised respective strains, drug, negative and positive controls with the S9 for testing in the presence of metabolic activation system. For testing without S9, 1 × phosphate buffer saline (PBS, pH 7.4) replaced the S9 mix. The obtained mixtures were added into the tube, mixed well and incubated at 37 °C for 20 min. Then, the top agar was melted and 2 mL of this melted top agar was added to each tube and gently mixed. […] The results were expressed as the number of revertant colonies per plate. The experiments were performed in triplicate.

CYP3A4 mRNA = CYP3A4 mRNA expression in Hep G2 cells (real-time PCR); type: cell-based, human; details: 2 and 4 h, 4.98, 0.16 and 0.08 mM
Procedure: as §1

CYP2C9 mRNA = CYP2C9 mRNA expression in Hep G2 cells (real-time PCR); type: cell-based, human; details: 2 and 4 h, 4.98, 0.16 and 0.08 mM
Procedure: as §1

CYP2E1 mRNA = CYP2E1 mRNA expression in Hep G2 cells (real-time PCR); type: cell-based, human
Procedure: as §1

CYP3A4 = molecular target: T1, CYP3A4 (Homo sapiens, UniProt P08684); assay: Cocktail CYP inhibition in human liver microsomes, CYP3A4 (dapsone); type: in vitro ADME; details: cocktail method, read-out: IC50 values, CYP3A4 in HLMs
T1 construct: containing 100 μL RLMs or HLMs; tissue Research Institute for Liver Diseases (Shanghai) Co., Ltd; host or cells: pooled human liver microsomes
Procedure: (§5) We used the cocktail method to study the inhibition activities of DPTM against CYP enzymes in RLMs and HLMs with slight modification. DPTM (250 μmol) was dissolved in 1.25 mL methanol to a solution and then diluted with methanol and water to 2, 10, 20, 100, 200, 400, 1,000 and 2000 μM, respectively. The obtained serial dilutions (10 μL) were added to the incubation mixtures (200 μL total volume), containing 100 μL RLMs or HLMs (final concentration was 5 μg/μL, respectively), 10 μL glucose-6-phosphate (final concentration was 1 mM), 10 μL glucose-6-phosphate dehydrogenase (final concentration was 0.1 U/L), 20 μL potassium phosphate buffer (final concentration was 0.01 M) and 20 μL MgCl2 (final concentration was 2 mM), to give the final concentrations were 0.1, 0.5, 1, 5 10, 20, 50, and 100 μM, respectively. For the groups that in the absence of DPTM, 10 μL methanol (1%) replaced the DPTM and was added to the incubation mixtures. […] The final concentration of methanol in all the incubation mixtures, including the blank group, was […]. […] The determined metabolic substrates were used for calculating the relative enzyme activity (Erel) by the following formula: Erel (%) = Ci(n)/Ci(0) × 100%, in which Ci(n) was the determined metabolic substrates in the presence of varying concentrations of DPTM and Ci(0) was the determined metabolic substrates in the absence of DPTM. […]

[1] = test system: S. typhimurium strains TA97, TA98, TA100, TA102 and TA1535; assay: Ames test, overall verdict over five strains; type: cell-based, Salmonella typhimurium; details: with or without S9, up to 3.98 μmol/plate
Text: as §2, §3
as §4, with “min.” for “min. Then, the top agar was melted and 2 mL of this melted top agar was added to each tube and gently mixed.”, “The experiments were performed in triplicate.” left out

CYP1A2 [2] = molecular target: T2, CYP1A2 (Rattus norvegicus, UniProt P04799); assay: Cocktail CYP inhibition in rat liver microsomes, CYP1A2 (phenacetin); type: in vitro ADME; details: cocktail method, read-out: IC50 values, CYP1A2 in RLMs
T2 construct: containing 100 μL RLMs or HLMs; tissue Research Institute for Liver Diseases (Shanghai) Co., Ltd; host or cells: male SD rat liver microsomes
Procedure: as §5

CYP1A2 [3] = molecular target: T3, CYP1A2 (Homo sapiens, UniProt P05177); assay: Cocktail CYP inhibition in human liver microsomes, CYP1A2 (phenacetin); type: in vitro ADME; details: cocktail method, read-out: IC50 values, CYP1A2 in HLMs
T3 construct: containing 100 μL RLMs or HLMs; tissue Research Institute for Liver Diseases (Shanghai) Co., Ltd; host or cells: pooled human liver microsomes
Procedure: as §5

PPARα mRNA = PPARα mRNA expression in Hep G2 cells (real-time PCR); type: cell-based, human; details: 2, 4 and 12 h, three doses
Procedure: as §1

AhR mRNA = AhR mRNA expression in Hep G2 cells (real-time PCR); type: cell-based, human
Procedure: as §1

[4] = 2 and 4 h, 4.98, 0.16 and 0.08 mM

T3 sequence (P05177 whole entry): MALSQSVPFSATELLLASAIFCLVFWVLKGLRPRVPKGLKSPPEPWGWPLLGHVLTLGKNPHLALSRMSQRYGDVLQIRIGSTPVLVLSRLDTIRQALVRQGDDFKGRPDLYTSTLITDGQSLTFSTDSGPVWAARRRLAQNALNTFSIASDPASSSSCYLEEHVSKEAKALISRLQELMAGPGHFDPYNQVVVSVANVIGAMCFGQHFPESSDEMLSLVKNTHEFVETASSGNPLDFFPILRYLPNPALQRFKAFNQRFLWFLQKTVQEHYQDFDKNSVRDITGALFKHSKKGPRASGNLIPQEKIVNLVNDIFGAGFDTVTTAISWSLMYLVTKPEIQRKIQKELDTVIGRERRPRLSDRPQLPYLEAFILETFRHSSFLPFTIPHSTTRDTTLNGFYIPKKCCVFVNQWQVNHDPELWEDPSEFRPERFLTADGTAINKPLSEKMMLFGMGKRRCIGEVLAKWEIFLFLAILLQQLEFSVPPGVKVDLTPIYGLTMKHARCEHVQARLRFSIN
T2 sequence (P04799 whole entry): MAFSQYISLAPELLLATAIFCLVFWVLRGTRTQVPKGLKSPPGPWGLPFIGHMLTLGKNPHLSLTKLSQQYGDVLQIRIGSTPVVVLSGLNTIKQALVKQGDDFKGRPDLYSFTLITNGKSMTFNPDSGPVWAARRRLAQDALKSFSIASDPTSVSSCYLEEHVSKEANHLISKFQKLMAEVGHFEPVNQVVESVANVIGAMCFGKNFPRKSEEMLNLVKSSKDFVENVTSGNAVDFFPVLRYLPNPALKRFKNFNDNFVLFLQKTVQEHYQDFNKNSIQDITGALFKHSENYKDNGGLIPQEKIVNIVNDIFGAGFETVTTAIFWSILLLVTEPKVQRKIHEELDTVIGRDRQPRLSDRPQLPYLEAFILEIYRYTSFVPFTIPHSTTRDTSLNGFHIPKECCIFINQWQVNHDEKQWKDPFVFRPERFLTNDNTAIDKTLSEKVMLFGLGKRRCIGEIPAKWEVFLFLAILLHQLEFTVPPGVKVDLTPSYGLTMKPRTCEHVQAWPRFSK
T1 sequence (P08684 whole entry): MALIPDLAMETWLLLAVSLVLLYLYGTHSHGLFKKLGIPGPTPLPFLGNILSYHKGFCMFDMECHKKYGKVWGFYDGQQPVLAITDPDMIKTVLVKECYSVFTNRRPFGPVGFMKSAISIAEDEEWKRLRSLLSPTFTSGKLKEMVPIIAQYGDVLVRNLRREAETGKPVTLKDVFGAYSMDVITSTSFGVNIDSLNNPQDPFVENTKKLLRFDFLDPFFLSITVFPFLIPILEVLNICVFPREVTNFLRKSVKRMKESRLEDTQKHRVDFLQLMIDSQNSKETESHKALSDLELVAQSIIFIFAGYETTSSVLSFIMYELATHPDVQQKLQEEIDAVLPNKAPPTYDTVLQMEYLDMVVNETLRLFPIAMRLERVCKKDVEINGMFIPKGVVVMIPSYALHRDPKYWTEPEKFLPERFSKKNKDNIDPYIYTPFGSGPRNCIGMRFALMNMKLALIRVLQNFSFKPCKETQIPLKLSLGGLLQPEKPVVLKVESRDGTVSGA

C=CC1(C)CC(OC(=O)CSc2nc(N)cc(N)n2)C2(C)C(C)CCC3(CCC(=O)C32)C(C)C1O (stereo not drawn) [DPTM, 14-O-[(4,6-Diaminopyrimidine-2-yl)thioacetyl] mutilin]
CYP1A2 mRNA expression versus control (CYP1A2 mRNA; [4]): significantly increase
CYP1A2 mRNA expression versus control (CYP1A2 mRNA; 12 h): significantly lowered
revertant colonies per plate, TA98 (S. typhimurium TA98; dose 0.25 μmol/plate): 33 ± 6 CFU
revertant colonies per plate, TA98 (S. typhimurium TA98; dose 0.50 μmol/plate): 30 ± 10 CFU
revertant colonies per plate, TA98 (S. typhimurium TA98; dose 1.00 μmol/plate): 27 ± 8 CFU
revertant colonies per plate, TA98 (S. typhimurium TA98; dose 1.99 μmol/plate): 32 ± 8 CFU
revertant colonies per plate, TA98 (S. typhimurium TA98; dose 3.98 μmol/plate): 28 ± 11 CFU
CYP3A4 mRNA expression versus control (CYP3A4 mRNA): significantly increase
CYP2C9 mRNA expression versus control (CYP2C9 mRNA): significantly increase
CYP2E1 mRNA level versus control (CYP2E1 mRNA; 4 h, three doses): no significantly difference
CYP2E1 mRNA expression versus control (CYP2E1 mRNA; 12 h): significantly lowered
IC50 (CYP3A4): 8 ± 2 µM
mutagenicity verdict (Ames test) [1]: should not be considered as a mutagen
IC50 (CYP1A2 [2]): > 100 µM
IC50 (CYP1A2 [3]): > 100 µM
PPARα mRNA expression versus control (PPARα mRNA): significantly increase
AhR mRNA content versus control (AhR mRNA; [4]): significantly increased
AhR mRNA content versus control (AhR mRNA; 12 h): no effect
